Data taken from patent US7846891B2, “Self-assembling peptides for regeneration and repair of neural tissue” (Massachusetts Institute of Technology, priority 2003, dated 2010).
Entries after “also recorded” stand apart in the source; their conditions may differ.

Assays:
[1] = system: brachium of the superior colliculus (brain wound); assay: Visually elicited orienting (head turning) test after transection of the brachium of the superior colliculus in adult hamsters; type: in vivo, Syrian hamster; settings: BSC transected at 2 months of age, 10 ul of 1% SAP at surgery, testing from day 44-46, listed as SAP
Protocol: Thus functional recovery of severed axons can be assessed by evaluating visually elicited head turning at various times after infliction of a lesion that severs the brachium, such as those described in Example 1.
To determine the extent of return of vision the animals are tested for visually elicited orienting responses. The identity of the animal is unknown to the investigator during testing periods. Before behavioral testing, the animals are habituated to the testing environment. Videotaping of the response is accomplished by the use of an overhead Sony digital video (DV) recorder. Some of the trials are simultaneously taped from the side with another Sony DV recorder. Later the video is analyzed frame-by-frame on a 21-inch monitor. All of the cameras are time synchronized. The first type of analysis is to determine if the trial is valid or invalid. Once a trial is judged as valid it is analyzed frame by frame, which enables us to plot the position of the stimulus with respect to the initial head location. The angle of the head at the beginning of the turning movement is set to zero. […]
The y axis represents the number of times the animal turned toward the stimulus during testing, expressed as a percentage of the number of times the stimulus was presented on the side that had received the lesion and SAP treatment. […]

[2] = system: optic tract within the superior colliculus (brain wound); assay: Optic tract transection (knife wound in superior colliculus) in P2 hamster pups; histology and CT-B axon tracing; type: in vivo, Syrian hamster
Protocol: Animals and surgery. Syrian hamster pups at two days of age (P2) were anesthetized with whole-body cooling. […] At surgery, 10 animals were treated by injection into the brain wound of 10 microliters of 1% SAP RADA16-I (n-RADARADARADARADA-c; SEQ ID NO: 1) prepared by dissolving peptide in sterile water. The overlying scalp was then closed with tissue glue (cyanoacrylic). The pups were returned to the cage, placed under a heat lamp, and monitored until they recovered. After recovery the hamster pups were returned to their mother. Control animals with the same lesion included 3 with isotonic saline injection (10 microliters), and 27 earlier cases with knife cuts and no injection.
(§1) Axon tracing method. Four days before the animals were sacrificed they were anesthetized with intraperitoneal injection of Valium (50 mg/kg) and Nembutal (10 mg/kg). […]. This was accomplished with the aid of glass micropipette (tip diameter ˜10 μm) attached to a General Valve Pico Spritzer as previously described. The subjects were then returned to their cages, under a heat lamp, and monitored until they recovered.
Histology. The animals were sacrificed with an overdose of anesthesia 4 days after the intraocular injection of CT-B and were then perfused transcardially with PBS buffer (pH 7.4) followed by 2% paraformaldehyde in 0.1M phosphate buffer (pH 7.4). The brains and eyes were removed and postfixed at 4° C. until they sank. The tissue was cut on a cryostat in 30 micron coronal sections. These sections were mounted directly on gelatin-coated slides. The mounted sections were first air dried, then washed with PBS (pH 7.4) three times at 10 min intervals, and then preblocked in PBS (pH 7.4) containing 2% Triton X-100, 2% normal rabbit serum, and 2.5% bovine serum albumin for 30 min at room temperature. The slides were then incubated with goat anti-cholaragenoid (List Biological Lab, Inc.) (1:8000 dilution)+2% Triton X-100, 2% normal rabbit serum, and 2.5% bovine serum albumin for 48 hours at room temperature. Slides were then washed in PBS (pH 7.4) for three rounds of 10 min each. Sections were incubated with fluorescent donkey anti-IgG antibody Alexa-488 (secondary antibody from Molecular Probes, Inc.) (1:200 dilution) for 1 her 30 min at room temperature in a light protected chamber. Slides were then washed in PBS (pH 7.4) 4 to 5 times at 5 min intervals. The slides were then cover-slipped with Dabco. The slides were visualized through a fluorescent microscope and pictures were taken with a Kodak DCS 620 digital camera. […]

[3] = system: brachium of the superior colliculus (brain wound); assay: Histology and CT-B axon tracing after transection of the brachium of the superior colliculus in adult hamsters; type: in vivo, Syrian hamster; settings: BSC transection; for axon growth through the lesion site (CT-B tracing) / tissue reconnection / repair at the lesion site (histology): 10 ul of 1% SAP, section 2 months after injection
Protocol: as §1
Histology. The animals were sacrificed with an overdose of anesthesia 4 days after the intraocular injection of CT-B and were then perfused transcardially with PBS buffer (pH 7.4) followed by 2% paraformaldehyde in 0.1M phosphate buffer (pH 7.4). The brains and eyes were removed and postfixed at 4° C. until they sank. The tissue was cut on a cryostat in 30 micron coronal sections. These sections were mounted directly on gelatin-coated slides. The mounted sections were first air dried, then washed with PBS (pH 7.4) three times at 10 min intervals, and then preblocked in PBS (pH 7.4) containing 2% Triton X-100, 2% normal rabbit serum, and 2.5% bovine serum albumin for 30 min at room temperature. The slides were then incubated with goat anti-cholaragenoid (List Biological Lab, Inc.) (1:8000 dilution)+2% Triton X-100, 2% normal rabbit serum, and 2.5% bovine serum albumin for 48 hours at room temperature. Slides were then washed in PBS (pH 7.4) for three rounds of 10 min each. Sections were incubated with fluorescent donkey anti-IgG antibody Alexa-488 (secondary antibody from Molecular Probes, Inc.) (1:200 dilution) for 1 her 30 min at room temperature in a light protected chamber. Slides were then washed in PBS (pH 7.4) 4 to 5 times at 5 min intervals. The slides were then cover-slipped with Dabco. The slides were visualized through a fluorescent microscope and pictures were taken with a Kodak DCS 620 digital camera.
At the time of surgery, animals were treated by injection of 10 ul of 1% SAP RAD16-I into the brain wound. Animals were allowed to recover from surgery and maintained under standard laboratory conditions.
. Axon tracing and histology were performed as described above to allow visualization of the lesion site and assessment of axon regrowth. FIG. 10 is a parasagittal section of the dorsal midbrain of a hamster. Rostral is left and caudual is right. The section is from an 8 month old hamster and was taken 2 months following infliction of the lesion. The bright yellow in the middle of the picture that extends from the lower left to the upper right is in the middle of the lesion site. Retinal projections show as gray. Note the axons extending through the center of the cut. […] In addition, the tissue has reconnected at the lesion site in a similar manner to that observed in the younger animals.

[4] = Self-assembly of SAP on addition to CSF in vitro; type: physicochemical; settings: data not shown

Substance: n-RADARADARADARADA-c [RADA16-I]
- behavioral recovery (response to visual stimulus) [1]: significant behavioral recovery; also recorded: return of functional vision in six animals
- axon regrowth across the lesion (cholera-toxin labeling) ([2]; 1 month hamster, lesion at P2 injected with 10 microliters of 1% SAP): axons have extended from a location proximal to the lesion to a distal location
- scar at lesion site (bright-field image) ([2]; 2 months after lesion and injection of SAP): minimal nature of the scar
- re-innervation of the caudal SC by the severed retinofugal axons ([2]; lesion at P2, 10 ul of 1% SAP): partial re-innervation of the caudal SC
- tissue reconnection across the lesion (histology) ([2]; lesion at P2, 10 ul of 1% SAP injected into brain wound, survival 1, 3, 6, 30 or 60 days, vs saline and no-injection controls (χ^2=34.8, df (1), p<<0.001)): the tissue appears to have reconnected across the lesion at all survival times
- re-innervation of the SC by the severed retinofugal axons ([3]; 10 ul of 1% SAP at surgery): partial re-innervation of the SC
- axon growth through the lesion site (CT-B tracing) ([3]; listed as RAD16-I): axons have extended their processes to the superior colliculus
- tissue reconnection / repair at the lesion site (histology) ([3]; listed as RAD16-I): All of the tissue has repaired itself
- axon growth through the lesion site (CT-B tracing) ([3]; listed as SAP): axons growing through the site where the cut transected the brachium of the superior colliculus
- tissue reconnection / repair at the lesion site (histology) ([3]; listed as SAP): neural tissue reconnected across the site of the lesion
- self-assembly in CSF [4]: resulted in self-assembly to form a peptide scaffold
